SMILES strings stand for the structures.

For the assay, the target named is BTK (Homo sapiens (Human), UniProt Q06187). Kind of assay: Btk kinase assay (HTRF). The assay is classed as biochemical. The following applies: [ATP]=80 μM, BTK=3.4 nM; read-out: BTK Inhibition. Summed up: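 HTRF kinase read-out (665/615 nm ratio, excitation 330 nm) after EDTA quench and 1 h detection incubation. Reaction: 3.4 nM BTK, ATP 80 μM, peptide substrate 1 μM, compound, HEPES pH 7.0 buffer, 1 h; IC50 derived using uninhibited and enzyme-free controls.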
Sequence of BTK (Q06187 whole entry, species assumed): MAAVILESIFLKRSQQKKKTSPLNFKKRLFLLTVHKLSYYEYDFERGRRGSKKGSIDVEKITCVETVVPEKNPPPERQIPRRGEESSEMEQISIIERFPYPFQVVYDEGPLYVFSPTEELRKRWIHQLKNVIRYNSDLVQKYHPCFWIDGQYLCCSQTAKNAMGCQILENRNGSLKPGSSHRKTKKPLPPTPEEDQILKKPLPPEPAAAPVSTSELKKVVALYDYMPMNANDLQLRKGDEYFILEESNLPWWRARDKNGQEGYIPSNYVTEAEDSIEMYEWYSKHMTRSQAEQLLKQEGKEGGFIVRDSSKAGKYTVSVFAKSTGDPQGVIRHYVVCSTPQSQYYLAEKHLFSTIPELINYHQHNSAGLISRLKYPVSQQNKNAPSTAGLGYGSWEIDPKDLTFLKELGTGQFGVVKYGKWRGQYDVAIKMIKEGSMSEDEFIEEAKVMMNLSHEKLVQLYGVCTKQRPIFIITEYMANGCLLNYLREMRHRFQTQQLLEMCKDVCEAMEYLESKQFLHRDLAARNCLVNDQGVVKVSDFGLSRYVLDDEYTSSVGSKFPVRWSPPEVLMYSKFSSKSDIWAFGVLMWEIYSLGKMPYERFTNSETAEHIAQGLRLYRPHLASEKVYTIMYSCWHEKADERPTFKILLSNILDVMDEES
As to `C=CC(=O)Nc1cccc(-n2c(=O)n(-c3cccc(Oc4cccc(Cl)c4)c3)c3cnccc32)c1` [Example 74, N-(3-(3-(3-(3-chlorophenoxy)phenyl)-2-oxo-2,3-dihydro-1H-imidazo[4,5-c]pyridin-1-yl)phenyl)acrylamide], the IC50 is 0.01 to 0.1 µM.
On to `C=CC(=O)Nc1cccc(-n2c(=O)n(-c3ccc(OCc4ccccc4F)cc3)c3cnccc32)c1` [Example 228, N-(3-(3-(4-((2-fluorobenzyl)oxy)phenyl)-2-oxo-2,3-dihydro-1H-imidazo[4,5-c]pyridin-1-yl)phenyl)acrylamide], for which the IC50 fell in the range of 0.1 to 1 µM.
Regarding `C=CC(=O)Nc1cccc(-n2c(=O)n(-c3ccc(C(=O)Nc4cccc(C(F)(F)F)c4)cc3)c3cnccc32)c1` [Example 251, 4-(1-(3-acrylamidophenyl)-2-oxo-1H-imidazo[4,5-c]pyridin-3(2H)-yl)-N-(3-(trifluoromethyl)phenyl)benzamide], the IC50 is 1 to 10 µM.
On to `C=CC(=O)Nc1cccc(-n2c(=O)n(-c3ccc(Oc4cccc(C)c4)c(C)c3)c3cnccc32)c1` [Example 47, N-(3-(3-(3-methyl-4-(m-tolyloxy)phenyl)-2-oxo-2,3-dihydro-1H-imidazo[4,5-c]pyridin-1-yl)phenyl) acrylamide], for which the IC50 lay in the range of 1 to 10 µM.
As for `C=CC(=O)N1CC[C@@H](n2c(=O)n(-c3ccc(Oc4cccc(C(C)C)c4)cc3)c3cnccc32)C1` [Example 153, (R)-1-(1-acryloylpyrrolidin-3-yl)-3-(4-(3-isopropylphenoxy)phenyl)-1H-imidazo[4,5-c]pyridin-2(3H)-one], the IC50 lay in the range of 0.01 to 0.1 µM.
Take `CC(C)(C)/C=C(/C#N)C(=O)N1CCCC1Cn1c(=O)n(-c2ccc(Oc3ccccc3)cc2)c2cnccc21` (stereo not shown) [Example 180, 4,4-Dimethyl-2-{2-[2-oxo-3-(4-phenoxy-phenyl)-2,3-dihydro-imidazo[4,5-c]pyridin-1-ylmethyl]-pyrrolidine-1-carbonyl}-pent-2-enenitrile]: the IC50 lay within 0.1 to 1 µM.
As to `C=CC(=O)Nc1cccc(-n2c(=O)n(-c3ccc(Oc4ccccc4)c(Cl)c3)c3cnccc32)c1` [Example 73, N-(3-(3-(3-chloro-4-phenoxyphenyl)-2-oxo-2,3-dihydro-1H-imidazo[4,5-c]pyridin-1-yl)phenyl)acrylamide], the IC50 was 0.01 to 0.1 µM.
The value for `C=CC(=O)Nc1cccc(-n2c(=O)n(-c3ccc(OCc4ccccc4)c(F)c3)c3cnccc32)c1` [Example 234, N-(3-(3-(4-(benzyloxy)-3-fluorophenyl)-2-oxo-2,3-dihydro-1H-imidazo[4,5-c]pyridin-1-yl)phenyl)acrylamide] was 0.1 to 1 µM; that for `C=CC(=O)Nc1cccc(-n2c(=O)n(-c3ccc(Oc4cccc(F)c4F)cc3)c3cnccc32)c1` [Example 125, N-(3-(3-(4-(2,3-difluorophenoxy)phenyl)-2-oxo-2,3-dihydro-1H-imidazo[4,5-c]pyridin-1-yl)phenyl)acrylamide] was 0.01 to 0.1 µM.
The value for `C=CC(=O)N1CC[C@@H](n2c(=O)n(-c3cccc(-c4ccccc4C)c3)c3cnccc32)C1` [Example 273, (R)-1-(1-acryloylpyrrolidin-3-yl)-3-(2′-methyl-[1,1′-biphenyl]-3-yl)-1H-imidazo[4,5-c]pyridin-2(3H)-one] was 0.1 to 1 µM; that for `C=CC(=O)Nc1cccc(-n2c(=O)n(-c3ccc(Oc4ccnc(C(=O)NC)c4)cc3)c3cnccc32)c1` [Example 115, 4-(4-(1-(3-acrylamidophenyl)-2-oxo-1H-imidazo[4,5-c]pyridin-3(2H)-yl)phenoxy)-N-methylpicolinamide] was 0.1 to 1 µM.
As to `C=CC(=O)N1CC[C@@H](n2c(=O)n(-c3ccc(Oc4ccccn4)cc3)c3cnccc32)C1` [Example 104, (R)-1-(1-acryloylpyrrolidin-3-yl)-3-(4-(pyridin-2-yloxy)phenyl)-1,3-dihydro-2H-imidazo[4,5-c]pyridin-2-one], the IC50 was 0.1 to 1 µM.
The value for `C=CC(=O)N1CC[C@@H](n2c(=O)n(-c3ccc(Oc4cccc(C)c4)c(F)c3)c3cnccc32)C1` [Example 78, (R)-1-(1-acryloylpyrrolidin-3-yl)-3-(3-fluoro-4-(m-tolyloxy)phenyl)-1H-imidazo[4,5-c]pyridin-2(3H)-one] was 0.01 to 0.1 µM.
In the case of `C=CC(=O)N1CC[C@@H](n2c(=O)n(-c3ccc(Oc4ccccc4)c(F)c3)c3cnccc32)C1` [Example 95, (R)-1-(1-acryloylpyrrolidin-3-yl)-3-(3-fluoro-4-phenoxyphenyl)-1,3-dihydro-2H-imidazo[4,5-c]pyridin-2-one] it was 0.01 to 0.1 µM; in that of `C=CC(=O)Nc1cccc(-n2c(=O)n(-c3ccc(Oc4cccc(OC)c4)c(C)c3)c3cnccc32)c1` [Example 62, N-(3-(3-(4-(3-methoxyphenoxy)-3-methylphenyl)-2-oxo-2,3-dihydro-1H-imidazo[4,5-c]pyridin-1-yl)phenyl)acrylamide], 0.01 to 0.1 µM; in that of `C=CC(=O)N1CCC[C@@H](n2c(=O)n(-c3ccc(Oc4cccc(C)c4)cc3)c3cnccc32)C1` [Example 13, (R)-1-(1-acryloylpiperidin-3-yl)-3-(4-(m-tolyloxy)phenyl)-1H-imidazo[4,5-c]pyridin-2(3H)-one], 0.01 to 0.1 µM.
The value for `C=CC(=O)N1CC[C@@H](n2c(=O)n(-c3cccc(Oc4cccc(Cl)c4F)c3)c3cnccc32)C1` [Example 97, (R)-1-(1-acryloylpyrrolidin-3-yl)-3-(3-(3-chloro-2-fluorophenoxy)phenyl)-1,3-dihydro-2H-imidazo[4,5-c]pyridin-2-one] was 0.01 to 0.1 µM.
As for `C=CC(=O)N1CC[C@@H](n2c(=O)n(-c3ccc(OCc4cc(F)cc(F)c4)c(Cl)c3)c3cnccc32)C1` [Example 207, (R)-1-(1-acryloylpyrrolidin-3-yl)-3-(3-chloro-4-((3,5-difluorobenzyl)oxy)phenyl)-1H-imidazo[4,5-c]pyridin-2(3H)-one], the IC50 fell in the range of 0.1 to 1 µM.
The value for `C=CC(=O)N1CC[C@@H](n2c(=O)n(-c3ccc(OCc4cccc(C(F)(F)F)c4)cc3)c3cnccc32)C1` [Example 211, (R)-1-(1-acryloylpyrrolidin-3-yl)-3-(4-((3-(trifluoromethyl)benzyl)oxy)phenyl)-1H-imidazo[4,5-c]pyridin-2(3H)-one] was 0.1 to 1 µM; that for `C=CC(=O)N1CCC[C@@H](n2c(=O)n(-c3ccc(Oc4cccc(OC)c4F)cc3)c3cnccc32)C1` [Example 186, (R)-1-(1-acryloylpiperidin-3-yl)-3-(4-(2-fluoro-3-methoxyphenoxy)phenyl)-1H-imidazo[4,5-c]pyridin-2(3H)-one] was not above 0.01 µM; that for `C=CC(=O)N1CC[C@@H](n2c(=O)n(-c3ccc(OCc4cc(F)ccc4F)c(Cl)c3)c3cnccc32)C1` [Example 206, (R)-1-(1-acryloylpyrrolidin-3-yl)-3-(3-chloro-4-((2,5-difluorobenzyl)oxy)phenyl)-1H-imidazo[4,5-c]pyridin-2(3H)-one] was 0.1 to 1 µM.
As for `C=CC(=O)Nc1cccc(-n2c(=O)n(-c3ccc(Oc4ccc(OC)cc4)cc3)c3cnccc32)c1` [Example 80, N-(3-(3-(4-(4-methoxyphenoxy)phenyl)-2-oxo-2,3-dihydro-1H-imidazo[4,5-c]pyridin-1-yl)phenyl)acrylamide], the IC50 fell in the range of 0.1 to 1 µM.
Regarding `C=CC(=O)N1CC[C@@H](n2c(=O)n(-c3ccc(Oc4ccccc4)cc3)c3c(O)nccc32)C1` [Example 183, (R)-1-(1-acryloylpyrrolidin-3-yl)-4-hydroxy-3-(4-phenoxyphenyl)-1H-imidazo[4,5-c]pyridin-2(3H)-one], the IC50 was not below 10 µM.
The value for `C=CC(=O)Nc1cccc(-n2c(=O)n(-c3ccc(OCc4cccc(C(F)(F)F)c4)c(Cl)c3)c3cnccc32)c1` [Example 243, N-(3-(3-(3-chloro-4-((3-(trifluoromethyl)benzyl)oxy)phenyl)-2-oxo-2,3-dihydro-1H-imidazo[4,5-c]pyridin-1-yl)phenyl)acrylamide] was 0.1 to 1 µM; that for `C=CC(=O)Nc1cccc(-n2c(=O)n(-c3cccc(-c4ccc(C)cc4)c3)c3cnccc32)c1` [Example 272, N-(3-(3-(4′-methyl-[1,1′-biphenyl]-3-yl)-2-oxo-2,3-dihydro-1H-imidazo [4,5-c]pyridin-1-yl)phenyl)acrylamide] was 0.1 to 1 µM; that for `C=CC(=O)Nc1cccc(-n2c(=O)n(-c3ccc(Oc4cccc(OC(C)C)c4)c(C)c3)c3cnccc32)c1` [Example 46, N-(3-(3-(4-(3-isopropoxyphenoxy)-3-methylphenyl)-2-oxo-2,3-dihydro-1H-imidazo[4,5-c]pyridin-1-yl)phenyl)acrylamide] was 1 to 10 µM.
In the case of `C=CC(=O)N1CC[C@@H](n2c(=O)n(-c3cccc(Oc4ccc(OC)cc4)c3)c3cnccc32)C1` [Example 17, (R)-1-(1-acryloylpyrrolidin-3-yl)-3-(3-(4-methoxyphenoxy)phenyl)-1H-imidazo[4,5-c]pyridin-2(3H)-one] it was 0.1 to 1 µM; in that of `C=CC(=O)N1CC[C@@H](n2c(=O)n(-c3ccc(Oc4ccccc4)cc3)c3cncc(C#N)c32)C1` [Example 181, (R)-1-(1-acryloylpyrrolidin-3-yl)-oxo-3-(4-phenoxyphenyl)-2,3-dihydro-1H-imidazo[4,5-c] pyridine-7-carbonitrile], 0.01 to 0.1 µM.
The value for `C=CC(=O)N1CCC[C@@H](n2c(=O)n(-c3ccc(Oc4cccc(C)c4OC)cc3)c3cnccc32)C1` [Example 66, (R)-1-(1-acryloylpiperidin-3-yl)-3-(4-(2-methoxy-3-methylphenoxy)phenyl)-1H-imidazo[4,5-c] pyridin-2(3H)-one] was 0.01 to 0.1 µM.
Consider `C=CC(=O)Nc1cccc(-n2c(=O)n(-c3ccc(NC(=O)c4ccccc4C(F)(F)F)cc3)c3cnccc32)c1` [Example 262, N-(4-(1-(3-acrylamidophenyl)-2-oxo-1,2-dihydro-3H-imidazo[4,5-c]pyridin-3-yl)phenyl)-2-(trifluoromethyl)benzamide], for which the IC50 lay in the range of 0.1 to 1 µM.
For the compound `C=CC(=O)N1CCC[C@@H](n2c(=O)n(-c3ccc(Oc4cccc(Cl)c4)cc3)c3cnccc32)C1` [Example 106, (R)-1-(1-acryloylpiperidin-3-yl)-3-(4-(3-chlorophenoxy)phenyl)-1H-imidazo[4,5-c]pyridin-2(3H)-one], the IC50 lay in the range of 0.01 to 0.1 µM.

These data come from patent US10358446B2, “Bruton's tyrosine kinase inhibitors” (Zibo Biopolar Changsheng Pharmaceutical Co. Ltd., priority 2015, dated 2019).
